Data on 15 molecules can be found in patent US8871753B2, “Macrocyclic compounds and their use as kinase inhibitors” (Incyte Corporation, priority 2008, dated 2014).

By IC50 is commonly meant the point on the concentration scale where inhibition reaches its midpoint.

Where a name gives a salt, the structure may show the parent alone. Read-outs that look alike come from different tables or passages of the source.

What all share (type): biochemical
Test [1] deals with T1, human JAK2 (a.a. 828-1132) (Homo sapiens, UniProt O60674).
T1 construct: JAK2 (a.a. 828-1132); His tag (N); made in house; host or cells: insect cells (baculovirus)
Description: In vitro JAK kinase assay (HTRF, phosphorylation of a biotinylated peptide), JAK2. In outline: (§1)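 Kinase activity was measured as phosphorylation of a biotinylated peptide, with ATP at 90 μM for JAK1, 30 μM for JAK2 and 3 μM for JAK3. Reactions ran 1 hr at room temperature, were stopped with EDTA plus SA-APC and Eu-Py20, and were read by HTRF after 40 minutes of antibody binding.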
(In general: TR-FRET usually uses a lanthanide donor and a delayed reading to cut background.)

In test [2] the target is TYK2 (Homo sapiens, UniProt P29597). Description: TYK2 kinase inhibition (Table A1).
The target of test [3] is T2, Recombinant Human Anaplastic Lymphoma Kinase (Homo sapiens, UniProt Q9UM73).
T2 construct: purchased Invitrogen, Carlsbad, Calif
Description: ALK HTRF kinase assay. In a few lines:
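Readout was HTRF between a Eu-W1024 anti-phosphotyrosine antibody and streptavidin-APC bound to biotinylated peptide phosphorylated by recombinant human ALK. IC50 values came from a four-parameter logistic fit.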

The target in test [4] is T3, human JAK3 (a.a. 781-1124) (Homo sapiens, UniProt P52333).
T3 construct: JAK3 (a.a. 781-1124); His tag (N); made in house; host or cells: insect cells (baculovirus)
Kind of test: In vitro JAK kinase assay (HTRF, phosphorylation of a biotinylated peptide), JAK3. In outline:
as §1

Test [5] concerns the target T4, human JAK1 (a.a. 837-1142) (Homo sapiens, UniProt P23458).
T4 construct: human JAK1 (a.a. 837-1142); His tag (N); made in house; host or cells: insect cells (baculovirus)
Description: In vitro JAK kinase assay (HTRF, phosphorylation of a biotinylated peptide), JAK1. The conditions noted are these: read-out: JAK1 IC50. In outline:
as §1

The mark [6] stands for this setting: method AA1 (30 μM ATP) or AA2 (1000 μM ATP), not stated per value.
Setting [7] is: compound at 500 nM or 1 mM, 90 μM ATP.
Where [8] appears, read: method AA1 (3 μM ATP) or AA2 (1000 μM ATP), not stated per value.
Where [9] appears, read: method AA1 (90 μM ATP) or AA2 (1000 μM ATP), not stated per value.
Where [10] appears, read: compound at a concentration of 500 nM or 1 mM (not specified), cells shown as percentage.
[11] abbreviates: Table B1, cells without percent sign.

T3 sequence (P52333 781-1124): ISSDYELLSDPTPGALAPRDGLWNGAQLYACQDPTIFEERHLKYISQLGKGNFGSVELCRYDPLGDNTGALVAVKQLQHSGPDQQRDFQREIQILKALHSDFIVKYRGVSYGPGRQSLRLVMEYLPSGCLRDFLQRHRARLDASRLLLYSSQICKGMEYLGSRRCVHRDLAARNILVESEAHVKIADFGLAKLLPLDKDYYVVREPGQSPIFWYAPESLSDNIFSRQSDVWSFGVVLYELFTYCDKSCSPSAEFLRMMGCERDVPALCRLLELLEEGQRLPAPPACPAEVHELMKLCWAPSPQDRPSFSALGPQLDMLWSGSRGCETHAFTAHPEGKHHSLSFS
T2 sequence (Q9UM73 19-1620): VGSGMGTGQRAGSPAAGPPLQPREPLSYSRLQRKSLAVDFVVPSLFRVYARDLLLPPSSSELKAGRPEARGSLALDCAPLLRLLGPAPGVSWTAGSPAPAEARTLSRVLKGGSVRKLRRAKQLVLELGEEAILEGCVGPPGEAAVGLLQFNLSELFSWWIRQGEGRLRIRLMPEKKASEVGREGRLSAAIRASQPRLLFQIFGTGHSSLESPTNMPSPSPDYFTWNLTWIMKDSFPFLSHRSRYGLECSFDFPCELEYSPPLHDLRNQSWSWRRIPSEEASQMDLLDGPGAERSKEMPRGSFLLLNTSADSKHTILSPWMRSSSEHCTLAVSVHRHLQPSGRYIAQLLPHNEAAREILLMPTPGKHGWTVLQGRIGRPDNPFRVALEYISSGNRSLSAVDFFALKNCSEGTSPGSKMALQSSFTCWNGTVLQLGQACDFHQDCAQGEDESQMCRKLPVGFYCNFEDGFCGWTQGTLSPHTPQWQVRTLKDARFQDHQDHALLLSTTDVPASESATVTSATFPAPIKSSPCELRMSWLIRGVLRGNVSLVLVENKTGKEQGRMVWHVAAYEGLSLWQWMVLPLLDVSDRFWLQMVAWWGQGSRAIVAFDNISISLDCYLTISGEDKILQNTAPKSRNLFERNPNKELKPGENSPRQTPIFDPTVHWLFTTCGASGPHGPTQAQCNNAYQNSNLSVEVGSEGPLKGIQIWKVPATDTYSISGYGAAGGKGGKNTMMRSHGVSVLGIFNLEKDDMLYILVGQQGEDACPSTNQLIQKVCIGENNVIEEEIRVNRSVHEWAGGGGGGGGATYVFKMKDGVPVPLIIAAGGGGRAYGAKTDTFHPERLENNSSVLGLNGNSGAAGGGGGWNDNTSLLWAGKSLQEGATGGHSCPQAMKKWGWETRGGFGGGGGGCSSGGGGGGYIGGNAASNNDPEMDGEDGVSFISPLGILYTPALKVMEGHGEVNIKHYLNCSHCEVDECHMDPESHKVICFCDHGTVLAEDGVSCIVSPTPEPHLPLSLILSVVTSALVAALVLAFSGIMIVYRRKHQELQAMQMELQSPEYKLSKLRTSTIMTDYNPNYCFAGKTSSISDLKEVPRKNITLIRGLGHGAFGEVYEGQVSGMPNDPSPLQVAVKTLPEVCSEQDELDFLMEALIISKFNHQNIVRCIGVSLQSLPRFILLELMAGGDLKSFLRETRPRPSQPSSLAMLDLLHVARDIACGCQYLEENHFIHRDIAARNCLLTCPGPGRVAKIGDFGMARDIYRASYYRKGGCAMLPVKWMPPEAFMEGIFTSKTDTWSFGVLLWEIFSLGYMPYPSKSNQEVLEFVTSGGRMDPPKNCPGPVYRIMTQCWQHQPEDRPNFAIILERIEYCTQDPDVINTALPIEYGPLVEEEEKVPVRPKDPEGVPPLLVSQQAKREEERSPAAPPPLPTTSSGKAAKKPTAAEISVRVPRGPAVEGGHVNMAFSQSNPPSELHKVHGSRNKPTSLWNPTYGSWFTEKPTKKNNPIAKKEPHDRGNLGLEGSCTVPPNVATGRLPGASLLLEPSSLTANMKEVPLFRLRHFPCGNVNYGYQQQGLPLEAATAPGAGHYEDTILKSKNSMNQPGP
Sequence of TYK2 (P29597 whole entry): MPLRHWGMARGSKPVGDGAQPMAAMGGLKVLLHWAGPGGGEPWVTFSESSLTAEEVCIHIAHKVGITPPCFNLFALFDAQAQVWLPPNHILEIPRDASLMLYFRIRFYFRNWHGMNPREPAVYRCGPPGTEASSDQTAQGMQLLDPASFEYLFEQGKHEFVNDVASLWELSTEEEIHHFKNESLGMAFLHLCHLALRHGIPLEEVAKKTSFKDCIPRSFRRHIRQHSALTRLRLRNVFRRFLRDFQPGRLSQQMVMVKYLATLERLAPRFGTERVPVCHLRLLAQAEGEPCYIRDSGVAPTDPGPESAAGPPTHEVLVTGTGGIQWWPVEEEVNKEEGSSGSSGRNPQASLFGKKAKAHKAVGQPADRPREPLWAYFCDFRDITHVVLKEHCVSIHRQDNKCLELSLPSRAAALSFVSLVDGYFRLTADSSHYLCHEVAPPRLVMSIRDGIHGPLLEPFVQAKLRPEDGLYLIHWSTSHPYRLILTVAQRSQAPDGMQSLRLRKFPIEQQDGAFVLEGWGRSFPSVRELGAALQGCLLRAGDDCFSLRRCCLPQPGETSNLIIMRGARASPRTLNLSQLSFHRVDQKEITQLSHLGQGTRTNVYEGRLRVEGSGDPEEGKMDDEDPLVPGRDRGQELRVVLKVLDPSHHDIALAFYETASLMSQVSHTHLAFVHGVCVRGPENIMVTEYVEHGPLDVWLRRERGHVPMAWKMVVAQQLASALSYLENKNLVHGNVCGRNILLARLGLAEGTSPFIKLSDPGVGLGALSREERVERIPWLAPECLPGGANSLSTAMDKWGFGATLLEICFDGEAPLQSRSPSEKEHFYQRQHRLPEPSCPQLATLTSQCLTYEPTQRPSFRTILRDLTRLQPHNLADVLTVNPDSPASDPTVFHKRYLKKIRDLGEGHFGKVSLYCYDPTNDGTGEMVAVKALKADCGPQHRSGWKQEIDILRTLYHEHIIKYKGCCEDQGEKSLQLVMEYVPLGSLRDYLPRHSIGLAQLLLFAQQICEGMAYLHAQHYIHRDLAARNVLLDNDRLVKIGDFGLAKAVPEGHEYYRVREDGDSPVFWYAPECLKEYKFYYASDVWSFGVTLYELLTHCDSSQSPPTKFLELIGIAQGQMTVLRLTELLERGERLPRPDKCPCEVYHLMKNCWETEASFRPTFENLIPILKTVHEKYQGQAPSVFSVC
T1 sequence (O60674 828-1132): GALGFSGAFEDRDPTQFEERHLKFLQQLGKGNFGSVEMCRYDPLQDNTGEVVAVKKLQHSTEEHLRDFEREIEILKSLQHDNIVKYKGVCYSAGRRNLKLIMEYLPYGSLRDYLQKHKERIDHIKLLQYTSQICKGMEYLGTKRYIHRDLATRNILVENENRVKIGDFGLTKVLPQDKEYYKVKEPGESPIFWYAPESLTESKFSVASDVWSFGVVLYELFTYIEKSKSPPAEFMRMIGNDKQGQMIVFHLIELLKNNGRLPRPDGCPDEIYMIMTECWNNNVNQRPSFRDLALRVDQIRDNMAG
T4 sequence (P23458 849-1154): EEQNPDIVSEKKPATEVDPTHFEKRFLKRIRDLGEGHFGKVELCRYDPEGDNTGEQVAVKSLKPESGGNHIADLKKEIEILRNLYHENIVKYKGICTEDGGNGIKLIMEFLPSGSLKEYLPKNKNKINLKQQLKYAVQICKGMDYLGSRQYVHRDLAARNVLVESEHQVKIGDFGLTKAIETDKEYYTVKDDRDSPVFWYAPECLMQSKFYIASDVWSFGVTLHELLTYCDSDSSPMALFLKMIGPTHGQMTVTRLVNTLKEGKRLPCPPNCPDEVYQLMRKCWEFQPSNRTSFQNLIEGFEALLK

Consider `CCNC(=O)N1CCCC(C(=O)Nc2ccc3cc2CCc2cccc(c2)Nc2ncc(Cl)c(n2)N3)C1` (stereo not drawn) [Example A49, N(3)-[6-Chloro-2,4,8,22-tetraazatetracyclo[14.3.1.1(3,7).1(9,13)]docosa-1(20),3(22),4,6,9(21),10,12,16,18-nonaen-12-yl]-N(1)-ethylpiperidine-1,3-dicarboxamide trifluoroacetate], for which the IC50 in test [1] (setting [6]) came out at 7.5 nM; in test [2] it was 39 nM; in test [4] (setting [8]), 11 nM; in test [5] (setting [9]), 14 nM. Also, the “ALK % of inhibition at a concentration of 500 nM or 1 mM” value (shortened to “ALK % of inhibition”) in test [3] (setting [7]) is reported as 24%.
Turning to `O=C(NCc1ccco1)Nc1ccc2cc1CCc1cccc(c1)Nc1ncc(Cl)c(n1)N2` [Example B117, N-[6-Chloro-2,4,8,22-tetraazatetracyclo[14.3.1.1(3,7).1(9,13)]docosa-1(20), 3(22),4,6,9(21),10,12,16,18-nonaen-12-yl]-N′-(2-furylmethyl)urea trifluoroacetate], the concentration for half-maximal inhibition (IC50) in test [1] (Table B1) was 2.8 nM; in test [2] (Table B1), 4.5 nM; in test [4] (Table B1), 17 nM; in test [5] (Table B1), 1.1 nM. In addition, the “ALK % of inhibition” value in test [3] (setting [10]) worked out at 21%.
As for `O=C(NCc1ccco1)Nc1cc2cc(c1)OCCSc1cccc(c1)Nc1nc(ncc1Cl)N2` [Example D67, N-[6-Chloro-17-oxa-14-thia-2,4,8,24-tetraazatetracyclo[16.3.1.1(3,7).1(9,13)]tetracosa-1(22),3(24),4,6,9(23),10,12,18,20-nonaen-20-yl]-N′-(2-furylmethyl)urea trifluoroacetate], the IC50 in test [1] (Table D1) was 1.8 nM; in test [2] (Table D1), 2.4 nM; in test [3] (Table D1, 90 μM ATP) it was more than 1000 nM; in test [4] (Table D1) it was 8.4 nM; in test [5] (Table D1), 3.2 nM.
`Cc1ccc(C(=O)Nc2ccc3cc2CCc2cccc(c2)Nc2ncc(Cl)c(n2)N3)cc1` [Example B47, N-[6-Chloro-2,4,8,22-tetraazatetracyclo[14.3.1.1(3,7).1(9,13)]docosa-1(20), 3(22),4,6,9(21),10,12,16,18-nonaen-12-yl]-4-methylbenzamide trifluoroacetate]: the concentration for half-maximal inhibition (IC50) in test [1] (Table B1) was 1.5 nM; in test [2] (Table B1) it was 3.2 nM; in test [3] (setting [11]) it was 180 nM; in test [4] (Table B1), 9.5 nM; in test [5] (Table B1), 0.7 nM.
For `CCC(=O)Nc1ccc2cc1CCc1cccc(c1)Nc1ncc(Cl)c(n1)N2` [Example B54, N-[6-Chloro-2,4,8,22-tetraazatetracyclo[14.3.1.1(3,7).1(9,13)]docosa-1(20), 3(22),4,6,9(21),10,12,16,18-nonaen-12-yl]propanamide trifluoroacetate], the IC50 in test [1] (Table B1) came out at 3.9 nM; in test [2] (Table B1), 14 nM; in test [3] (setting [11]) it was 970 nM; in test [4] (Table B1), 5.9 nM; in test [5] (Table B1), 4.9 nM.
Regarding `O=C(CC1CCN(C(=O)c2c[nH]nn2)CC1)Nc1ccc2cc1CCc1cncc(c1)Nc1ncc(Cl)c(n1)N2` [Example A137, N-[6-Chloro-2,4,8,18,22-pentaazatetracyclo[14.3.1.1(3,7).1(9,13)]docosa-1(20),3(22),4,6,9(21),10,12,16,18-nonaen-12-yl]-2-[1-(1H-1,2,3-triazol-4-ylcarbonyl)piperidin-4-yl]acetamide bis(trifluoroacetate)], the concentration for half-maximal inhibition (IC50) in test [1] (setting [6]) was found to be 3 nM; in test [2], 1 nM; in test [4] (setting [8]), 41 nM; in test [5] (setting [9]), 0.6 nM. The “ALK % of inhibition” value in test [3] (setting [7]) is on record as 54%.
In the case of `Cc1noc(C)c1C(=O)N1CC[C@H](NC(=O)Nc2ccc3cc2CCc2cncc(c2)Nc2ncc(Cl)c(n2)N3)C1` [Example B274, N-[6-chloro-2,4,8,18,22-pentaazatetracyclo[14.3.1.1(3,7).1(9,13)]docosa-1(20),3(22),4,6,9(21),10,12,16,18-nonaen-12-yl]-N′-{(3S)-1-[(3,5-dimethylisoxazol-4-yl)carbonyl]pyrrolidin-3-yl}urea bis(trifluoroacetate)], the half-maximal inhibitory concentration (IC50) was 192 nM in test [1] (Table B1), 325 nM in test [2] (Table B1), more than 10000 nM in test [4] (Table B1) and 60 nM in test [5] (Table B1). Further, in test [3] (setting [10]), the “ALK % of inhibition” value came out at 18%.
As to `N#Cc1ccccc1S(=O)(=O)N1CCC(CC(=O)Nc2ccc3cc2CCc2cccc(c2)Nc2ncc(Cl)c(n2)N3)CC1` [Example A208, N-[6-Chloro-2,4,8,22-tetraazatetracyclo[14.3.1.1(3,7).1(9,13)]docosa-1(20),3(22),4,6,9(21),10,12,16,18-nonaen-12-yl]-2-{1-[(2-cyanophenyl)sulfonyl]piperidin-4-yl}acetamide trifluoroacetate], the half-maximal inhibitory concentration (IC50) in test [1] (setting [6]) was 41 nM; in test [2], 150 nM; in test [4] (setting [8]), more than 200 nM; in test [5] (setting [9]), 1.6 nM. For the same molecule, the “ALK % of inhibition” value in test [3] (setting [7]) amounted to 17%.
Regarding `Clc1cnc2nc1Nc1cccc(c1)NCCCc1cccc(c1)N2` [Example D75, 6-Chloro-2,4,8,14,24-pentaazatetracyclo[16.3.1.1(3,7).1(9,13)]tetracosa-1(22),3(24),4,6,9(23),10,12,18,20-nonaene bis(trifluoroacetate)], the IC50 in test [1] (Table D1) was 26 nM; in test [2] (Table D1) it was 60 nM; in test [3] (Table D1, 90 μM ATP) it was 1250 nM; in test [4] (Table D1), 80 nM; in test [5] (Table D1), 50 nM.
For the molecule `O=C(Nc1ccc2cc1CCc1cccc(c1)Nc1ncc(Cl)c(n1)N2)c1cccc(C(F)(F)F)c1` [Example B76, N-[6-Chloro-2,4,8,22-tetraazatetracyclo[14.3.1.1(3,7).1(9,13)]docosa-1(20), 3(22),4,6,9(21),10,12,16,18-nonaen-12-yl]-3-(trifluoromethyl)benzamide trifluoroacetate], the half-maximal inhibitory concentration (IC50) in test [1] (Table B1) came out at 14 nM; in test [2] (Table B1), 25 nM; in test [4] (Table B1), 61 nM; in test [5] (Table B1) it was 33 nM. For the same molecule, the “ALK % of inhibition” value in test [3] (setting [10]) was found to be 28%.
`O=S(=O)(Nc1cc2cc(c1)Nc1nc(ncc1Cl)Nc1cccc(c1)CC2)c1ccccc1` [Example B203, N-[6-Chloro-2,4,8,22-tetraazatetracyclo[14.3.1.1(3,7).1(9,13)]docosa-1(20),3(22),4,6,9(21),10,12,16,18-nonaen-11-yl]benzenesulfonamide trifluoroacetate]: the IC50 is 19 nM in test [1] (Table B1); 34 nM in test [2] (Table B1); more than 10000 nM in test [3] (setting [11]); 102 nM in test [4] (Table B1); 44 nM in test [5] (Table B1).
Take `O=C(Nc1ccc2c(c1)CCC2)Nc1ccc2cc1CCc1cccc(c1)Nc1ncc(Cl)c(n1)N2` [Example B103, N-[6-Chloro-2,4,8,22-tetraazatetracyclo[14.3.1.1(3,7).1(9,13)]docosa-1(20), 3(22),4,6,9(21),10,12,16,18-nonaen-12-yl]-N′-(2,3-dihydro-1H-inden-5-yl)urea trifluoroacetate]: the IC50 in test [1] (Table B1) stood at 31 nM; in test [2] (Table B1), 46 nM; in test [4] (Table B1), 124 nM; in test [5] (Table B1), 9 nM. The “ALK % of inhibition” value in test [3] (setting [10]) is listed as 49%.
Turning to `O=C(CC1CCN(c2cccc(Cl)n2)CC1)Nc1ccc2cc1CCc1cncc(c1)Nc1ncc(Cl)c(n1)N2` [Example A180, N-[6-Chloro-2,4,8,18,22-pentaazatetracyclo[14.3.1.1(3,7).1(9,13)]docosa-1(20),3(22),4,6,9(21),10,12,16,18-nonaen-12-yl]-2-[1-(6-chloropyridin-2-yl)piperidin-4-yl]acetamide tris(trifluoroacetate)], the half-maximal inhibitory concentration (IC50) in test [1] (setting [6]) was more than 200 nM; in test [2], more than 200 nM; in test [4] (setting [8]), more than 200 nM; in test [5] (setting [9]), 13 nM. In addition, the “ALK % of inhibition” value in test [3] (setting [7]) was determined as 13%.
In the case of `N#Cc1ccc(N2CCN(C(=O)Nc3ccc4cc3CCc3cncc(c3)Nc3ncc(Cl)c(n3)N4)CC2)cc1` [Example B303, N-[6-Chloro-2,4,8,18,22-pentaazatetracyclo[14.3.1.1(3,7).1(9,13)]docosa-1(20),3(22),4,6,9(21),10,12,16,18-nonaen-12-yl]-4-(4-cyanophenyl)piperazine-1-carboxamide tris(trifluoroacetate)], the half-maximal inhibitory concentration (IC50) in test [1] (Table B1) was 161 nM; in test [2] (Table B1) it was 36 nM; in test [4] (Table B1), more than 400 nM; in test [5] (Table B1), 19 nM. Moreover, in test [3] (percentage inhibition of the example compound at a concentration of 500 nM or 1 mM (not specified which)), the “ALK % of inhibition” value amounted to 81%.
For the molecule `O=C(Nc1ccc2cc1CCc1cccc(c1)Nc1ncc(Cl)c(n1)N2)NC1CCCC1` [Example B88, N-[6-Chloro-2,4,8,22-tetraazatetracyclo[14.3.1.1(3,7).1(9,13)]docosa-1(20), 3(22),4,6,9(21),10,12,16,18-nonaen-12-yl]-N′-cyclopentylurea trifluoroacetate], the IC50 was 1.7 nM in test [1] (Table B1); 6.3 nM in test [2] (Table B1); 930 nM in test [3] (setting [11]); 29 nM in test [4] (Table B1); 0.74 nM in test [5] (Table B1).
